Measurements: patent US7850984B2, “Protection of the female reproductive system from natural and artificial insults” (The General Hospital Corporation, priority 2000, dated 2010)

Key:
oocytes [1] = conditions: female mouse oocytes; Perez et al. (1997); cited from earlier work
oocytes [2] = experiment: In vitro oocyte culture with or without doxorubicin, apoptosis; type: cell-based, mouse; conditions: 200 nM DXR, 24 hours, wild-type versus ASMase-deficient oocytes
Experimental: In addition to assessments of cellular morphology and caspase activation, some oocytes in each group are processed for DNA cleavage analysis as an endpoint for cell death using the Trevigen Comet Assay kit.
Female mice (43 days of age post-partum; Charles River Laboratories, Wilmington, Mass.) are superovulated with 10 IU of equine chorionic gonadotropin (eCG orPMSG) followed by 10 IU of human chorionic gonadotropin (hCG) 48 h later. Mature oocytes are collected from the oviducts 16 h after hCG injection. Cumulus enclosed oocytes are denuded by a 1-min incubation in 80 IU/ml of hyaluronidase, followed by three washes with culture medium. The medium used for all culture experiments is human tubal fluid (Irvine Scientific, Santa Ana, Calif.) supplemented with 0.5% bovine serum albumin (BSA).
Oocytes are cultured in 0.1 ml drops of culture medium (8-10 oocytes/drop) under paraffin oil and incubated with or without DXR (200 nM) and/or fumonisin-B1, sphingosine-1-phosphate or benzyloxycarbonyl-Val-Ala-Asp-fluoromethylketone (zVAD-FMK) for 24 h at 37° C. in a humidified atmosphere of 5% CO2-95% air. […] The percentage of oocytes that go through apoptosis out of the total number of oocytes cultured per drop in each experiment is then determined, and all experiments are independently repeated four to ten times with different mice.

[3] = system: germ cells of wild-type fetal ovaries (e13.5); experiment: Fetal ovary culture without hormonal support, germ cell survival; type: cell-based, mouse; conditions: wild-type fetal ovaries, 72 hours in vitro without hormonal support; FB1 5-500 μM; S1P increasing concentrations
Experimental: To determine the basis of the extensive oocyte hyperplasia in ASMase −/− neonates, fetal ovaries are harvested from wild-type and mutant mice at embryonic day 13.5 (e13.5) for in vitro culture as a model to recapitulate the events surrounding germline death that occurs as a normal component of female gametogenesis. A time-dependent activation of programmed cell death is observed in the germline of wild-type fetal ovaries cultured without hormonal support for up to 72 hours (FIG. 2A). […] These findings indicate that there exists an ovarian-intrinsic cell death defect in the ASMase-deficient mouse, and point to enhanced survival of the developing germline during oogenesis as the mechanism underlying the enlarged oocyte pool seen in mutant females at birth.
Equivalent levels of in vitro germ cell survival are obtained by either ASMase gene knockout (FIG. 2A) or by S1P treatment (FIG. 2B).

oocytes [4] = experiment: Microinjection of recombinant protein into single oocytes, apoptosis; type: cell-based, mouse; conditions: wild-type oocytes; ASMase: six picoliters of a 1 mg/ml stock
Experimental: Human recombinant acid sphingomyelinase is synthesized and purified as described by He et al., Biochim. Biophys. Acta 1432, 251 (1999), incorporated herein by reference in its entirety. Six picoliters of vehicle or of a 1 mg/ml stock of the enzyme are microinjected into single oocytes using a Zeiss Axiovert 135 inverted microscope equipped with Narishige micromanipulators and a PLI-100 pico-injector. Oocytes that survive the microinjection procedure (>75%) are then cultured and assessed for the occurrence of apoptosis. Furthermore, microinjection of human recombinant Bax protein into single oocytes and assessments of apoptosis are made as described by Perez, et al. (1997) id. Microinjection of human recombinant Bax protein into oocytes duplicates the pro-apoptotic effects of both human recombinant ASMase microinjection and anti-cancer drug treatment (FIG. 3E).

COc1cccc2c1C(=O)c1c(O)c3c(c(O)c1C2=O)C[C@@](O)(C(=O)CO)C[C@@H]3O[C@H]1C[C@H](N)[C@H](O)[C@H](C)O1 [DXR, doxorubicin, reference compound]
oocyte cell death on in vitro exposure (oocytes [1]): undergo a type of cell death, referred to as apoptosis
apoptotic event in oocytes (oocytes [2]): elicited in wild-type, but not ASMase-deficient, oocytes

CCCC[C@@H](C)[C@@H](OC(=O)C[C@@H](CC(=O)O)C(=O)O)[C@H](C[C@@H](C)C[C@H](O)CCCC[C@@H](O)C[C@H](O)[C@H](C)N)OC(=O)C[C@@H](CC(=O)O)C(=O)O [FB1, fumonisin-B1, reference compound]
germ cell survival / germ cell apoptosis in cultured fetal ovaries [3]: does not alter survival rates in the female germline

human recombinant Bax: human recombinant Bax protein microinjected into single oocytes
apoptosis after microinjection versus vehicle-injected oocytes (oocytes [4]): significant (P<0.05) increase in apoptosis

B1: human recombinant ASMase: human recombinant acid sphingomyelinase enzyme microinjected into single oocytes (protein, UniProt P17405 47-631, looked up)
Sphingomyelin …: LALSDSRVLWAPAEAHPLSPQGHPARLHRIVPRLRDVFGWGNLTCPICKGLFTAINLGLKKEPNVARVGSVAIKLCNLLKIAPPAVCQSIVHLFEDDMVEVWRRSVLSPSEACGLLLGSTCGHWDIFSSWNISLPTVPKPPPKPPSPPAPGAPVSRILFLTDLHWDHDYLEGTDPDCADPLCCRRGSGLPPASRPGAGYWGEYSKCDLPLRTLESLLSGLGPAGPFDMVYWTGDIPAHDVWHQTRQDQLRALTTVTALVRKFLGPVPVYPAVGNHESTPVNSFPPPFIEGNHSSRWLYEAMAKAWEPWLPAEALRTLRIGGFYALSPYPGLRLISLNMNFCSRENFWLLINSTDPAGQLQWLVGELQAAEDRGDKVHIIGHIPPGHCLKSWSWNYYRIVARYENTLAAQFFGHTHVDEFEVFYDEETLSRPLAVAFLAPSATTYIGLNPGYRVYQIDGNYSGSSHVVLDHETYILNLTQANIPGAIPHWQLLYRARETYGLPNTLPTAWHNLVYRMRGDMQLFQTFWFLYHKGHPPSEPCGTPCRLATLCAQLSARADSPALCRHLMPDGSLPEAQSLWPRPLFC
apoptosis after microinjection versus vehicle-injected oocytes (oocytes [4]): significant (P<0.05) increase in apoptosis
